Measured values as given in ChEMBL document CHEMBL1150574, “3-Acetoxyspathulenol, a new aromadendrane-type natural product from the soft Coral Parerythropodium fulvum” (J Nat Prod, 2001).
Calls of active or inactive are those of the source. The rule behind the calls is not given here.

Assays:
[1] = molecular target: Tyrosine-protein kinase Lck (Homo sapiens) (UniProt P06239); test: Inhibition of p56 LCK
Mycotypha microspora = test: Antimicrobial activity against Mycotypha microspora; type: functional, organism-based
Microbotryum violaceum = test: Antimicrobial activity against Microbotryum violaceum; type: functional, organism-based
Priestia megaterium = test: Antimicrobial activity against Bacillus megaterium; type: functional, organism-based
[2] = system: Human immunodeficiency virus; test: Inhibition of HIV reverse transcriptase
Fusarium oxysporum = test: Antimicrobial activity against Fusarium oxysporum; type: functional, organism-based
[Chlorella] fusca = Antimicrobial activity against Chlorella fusca; type: functional, organism-based; details: Scenedesmus fuscus
[3] = system: Aspergillus pseudoglaucus; test: Antimicrobial activity against Eurotium repens; type: functional, organism-based
Artemia = test: Toxicity against brine shrimp; type: organism-based; details: in vivo
Escherichia coli = test: Antimicrobial activity against Escherichia coli; type: functional, organism-based
Caenorhabditis elegans = test: Nematicide against Caenorhabditis elegans; type: functional, organism-based

Tyrosine-protein kinase Lck (Homo sapiens), sequence (P06239 2-509 limits assumed): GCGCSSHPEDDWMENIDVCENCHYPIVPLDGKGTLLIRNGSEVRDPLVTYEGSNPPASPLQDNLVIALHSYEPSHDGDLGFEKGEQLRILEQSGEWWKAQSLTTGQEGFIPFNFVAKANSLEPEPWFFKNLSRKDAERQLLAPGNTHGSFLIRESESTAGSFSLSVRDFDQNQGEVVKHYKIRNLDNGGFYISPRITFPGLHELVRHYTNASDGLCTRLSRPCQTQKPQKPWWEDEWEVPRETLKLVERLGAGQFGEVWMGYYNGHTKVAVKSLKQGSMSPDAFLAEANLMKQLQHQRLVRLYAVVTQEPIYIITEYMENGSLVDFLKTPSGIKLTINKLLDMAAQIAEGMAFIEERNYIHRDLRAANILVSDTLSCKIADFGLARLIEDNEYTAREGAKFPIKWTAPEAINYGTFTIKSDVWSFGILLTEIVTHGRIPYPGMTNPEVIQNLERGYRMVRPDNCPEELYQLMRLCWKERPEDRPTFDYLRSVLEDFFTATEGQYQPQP

C=C1CC[C@@H]2[C@H]([C@H]3[C@H]1C[C@@H](OC(C)=O)[C@@]3(C)O)C2(C)C
Activity [1]: inactive | Activity (Mycotypha microspora): inactive | Activity (Microbotryum violaceum): inactive | Activity (Priestia megaterium): inactive | Activity [2]: inactive | Activity (Fusarium oxysporum): inactive | Activity ([Chlorella] fusca): inactive | Activity [3]: inactive | Activity (Artemia): Non-toxic | Activity (Escherichia coli): inactive | Activity (Caenorhabditis elegans): inactive
